The values that follow come from patent US6395769B1, “2-arylbenzo[b]thiophenes useful for the treatment of estrogen deprivation syndrome” (Eli Lilly and Company, priority 1997, dated 2002).

The subject of one data set is bone mineral density. Description: Osteoporosis model in ovariectomized rats, bone mineral density. The format is in vivo, Sprague Dawley rats. The following applies: OVX rats treated orally daily for 35 days, in 20% hydroxypropyl β-cyclodextrin; femur x-ray image analysis and tibia quantitative computed tomography. From the text:
Seventy-five day old female Sprague Dawley rats (weight range of 200 g to 225 g) are obtained from Charles River Laboratories (Portage, Mich.). The animals are either bilaterally ovariectomized (OVX) or exposed to a Sham surgical procedure at Charles River Laboratories, and then shipped after one week. Upon arrival, they are housed in metal hanging cages in groups of 3 or 4 per cage and have ad libitum access to food (calcium content approximately 0.5%) and water for one week. Room temperature is maintained at 22.2°±1.70° C. with a minimum relative humidity of 40%. The photoperiod in the room is 12 hours light and 12 hours dark.
Following the General Procedure, infra, the rats are treated daily for 35 days (6 rats per treatment group) and sacrificed by carbon dioxide asphyxiation on the 36th day. The 35 day time period is sufficient to allow maximal reduction in bone density, measured as described herein. At the time of sacrifice, the uteri are removed, dissected free of extraneous tissue, and the fluid contents are expelled before determination of wet weight in order to confirm estrogen deficiency associated with complete ovariectomy. […]
The right femurs are excised and digitilized x-rays generated and analyzed by an image analysis program (NIH image) at the distal metaphysis. The proximal aspect of the tibiae from these animals are also scanned by quantitative computed tomography.

`COc1ccc(-c2cc3ccc(OC)cc3s2)cc1` [Example 1, 2-(4-Methoxyphenyl)-6-Methoxybenzo[b]thiophene]: the melting point – broadly, the temperature, or range, at which the solid turns liquid – lay in the range of 193 to 194 °C. Regarding `C#C[C@]1(O)CC[C@H]2[C@@H]3CCc4cc(O)ccc4[C@H]3CC[C@@]21C` [ethynyl estradiol, 17-α-ethynyl estradiol], in the data set on bone mineral density, the “loss of bone mineral density” value is given as “a reduction in the loss of bone mineral density”.
